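Exposure lasted 48 hours, with cells grown in 96-well plates and compounds tested at five concentrations. TGI marks complete inhibition of growth.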
Legend:
Test in all cases: inhibition of tumour cell growth, NCI panel, 48 h
MOLT-4 leukemia = test system: MOLT-4 leukemia
LOX IMVI melanoma = test system: LOX IMVI melanoma
NCI-H23 lung = test system: NCI-H23 lung
OVCAR-3 ovarian = test system: OVCAR-3 ovarian
OVCAR-4 ovarian = test system: OVCAR-4 ovarian
HCC-2998 colon = test system: HCC-2998 colon
SK-MEL-5 melanoma = test system: SK-MEL-5 melanoma
M14 melanoma = test system: M14 melanoma
ACHN renal = test system: ACHN renal
SW-620 colon = test system: SW-620 colon
SK-OV-3 ovarian = test system: SK-OV-3 ovarian
K-562 leukemia = test system: K-562 leukemia
HOP-62 NSCLC = test system: HOP-62 NSCLC
UO-31 renal = test system: UO-31 renal
MCF7 breast = test system: MCF7 breast
EKVX NSCLC = test system: EKVX NSCLC
U251 CNS = test system: U251 CNS
RXF 393 renal = test system: RXF 393 renal
SNB-75 CNS = test system: SNB-75 CNS
SF-539 CNS = test system: SF-539 CNS

| Compound | TGI (MOLT-4 leukemia) [µM] | TGI (LOX IMVI melanoma) [µM] | TGI (NCI-H23 lung) [µM] | TGI (OVCAR-3 ovarian) [µM] | TGI (OVCAR-4 ovarian) [µM] | TGI (HCC-2998 colon) [µM] | TGI (SK-MEL-5 melanoma) [µM] | TGI (M14 melanoma) [µM] | TGI (ACHN renal) [µM] | TGI (SW-620 colon) [µM] | TGI (SK-OV-3 ovarian) [µM] | TGI (K-562 leukemia) [µM] | TGI (HOP-62 NSCLC) [µM] | TGI (UO-31 renal) [µM] | TGI (MCF7 breast) [µM] | TGI (EKVX NSCLC) [µM] | TGI (U251 CNS) [µM] | TGI (RXF 393 renal) [µM] | TGI (SNB-75 CNS) [µM] | TGI (SF-539 CNS) [µM] |
| --- | --- | --- | --- | --- | --- | --- | --- | --- | --- | --- | --- | --- | --- | --- | --- | --- | --- | --- | --- | --- |
| C[C@H]1C[C@@H]2[C@H]([C@@H](O)C[C@@]3(C)[C@H]2CC[C@]3(O)C(=O)CO)[C@@]2(C)C=CC(=O)C=C12 | > 100 | > 100 | > 100 | > 100 | > 100 | > 100 | > 100 | > 100 | > 100 | > 100 | > 100 | > 100 | > 100 | > 100 |  |  |  |  |  |  |
| O=C(COc1ccc(Cl)c(Cl)c1)Nc1ccc[n+](Cc2ccc(S(=O)(=O)F)c(Cl)c2)c1 | > 100 |  | > 100 | > 100 | > 100 |  | > 100 | > 100 | > 100 | > 100 | > 100 | > 100 | > 100 | > 100 | > 100 | > 100 | > 100 | > 100 | > 100 | > 100 |
| Cc1ccc(O)c(Cc2nc3ccccc3nc2-c2cccc(Cl)c2)c1 | 51.4 | > 100 | > 100 | > 100 | 65.8 | > 100 | > 100 | > 100 | > 100 | > 100 | > 100 | > 100 | > 100 | > 100 | > 100 | > 100 | > 100 | > 100 |  | > 100 |
| CNC(=O)OCc1nc(SC)n(C)c1CO | > 100 | > 100 | > 100 | > 100 | > 100 | > 100 | > 100 |  |  | > 100 | > 100 | > 100 | > 100 | > 100 | > 100 | > 100 | > 100 | > 100 | > 100 | > 100 |
| CC(=O)Oc1ccccc1 | > 100 | > 100 | > 100 | > 100 | > 100 |  | > 100 | > 100 | > 100 | > 100 |  | > 100 | > 100 | > 100 |  | > 100 | > 100 | > 100 | > 100 | > 100 |
| C[n+]1cccc(NC(=O)c2ccc(NC(=O)C34CCC(C(=O)Nc5ccc(C(=O)Nc6ccc[n+](C)c6)cc5)(CC3)CC4)cc2)c1 | > 100 | > 100 | > 100 |  | > 100 |  | > 100 | > 100 | > 100 | > 100 |  | > 100 | > 100 |  |  | > 100 | > 100 | 61.5 | 78.7 | > 100 |
| CC(=O)Nc1ccc2c(c1)/C(=C\c1ccc([N+](C)(C)C)cc1)c1ccccc1-2 | > 100 | > 100 | > 100 | > 100 | > 100 | > 100 | 61.8 | 33.8 | > 100 | > 100 | > 100 | > 100 | > 100 | > 100 | > 100 | 78.6 | > 100 | > 100 | > 100 |  |
| COc1ccccc1/C=C/c1ccnc2ccccc12 | 28 | 36 | 27.9 | 26.7 | 25.4 | 31.3 | 26.4 | 29.7 | 32.8 | 26.9 | 29.7 | 30.7 | 29.6 |  | 17.5 | 23 | 24.2 |  | 17 | 27.8 |
| COc1cc2c(c(OC)c1OC)-c1ccc(OC)c(=O)cc1C(NC(=O)COc1ccccc1)CC2 (stereo unspecified) | 53 | > 82.6 |  | < 0.0355 | > 84 | 1.04 | 0.0371 | > 21.5 | > 100 | > 95.2 | 0.766 | 60.8 | > 100 | > 100 | > 49.4 | > 100 | 13 | > 71.5 | 10.5 | < 0.01 |
| Cc1ccc2c(c1)SC1=Nc3sc4cc(C)ccc4[n+]3CN12 |  | > 100 | 13.6 | 6.97 | 29.6 | 6.62 | 3.28 | 19.1 | > 100 | 53.1 | > 100 |  | 54.6 | > 100 | > 100 | 45.4 | 19 | > 100 | 64.5 | 25.4 |
| Cc1c2ccccc2c(C2C3C(=O)N(c4ccc(Br)cc4)C(=O)C3ON2C(C(N)=O)c2ccccc2)c2ccccc12 (stereo unspecified) | > 100 | 18.6 | 26.9 | 12.2 | > 100 | 26.6 | 11.9 | > 100 | 17.3 | > 100 | 46 | > 100 | 36.1 | 34.6 | 24.4 | 31.7 | 8.94 | 37.3 | 17.3 | 17.7 |
| COC1/C=C(C)/C=C/C(C)/C=C/C(=O)OC(/C(C)=C/C=C(\C)CNC(=O)[C@H](CO)NC=O)C(C)/C=C/C=C/C(OC)CC/C=C(C)/C=C/C1 (stereo partly specified) | > 0.611 | > 1 | > 0.859 | > 0.461 | > 1 |  | 0.0654 | 0.0356 | > 1 | > 1 | > 1 | 0.0472 | 0.109 | > 0.735 | > 1 | > 1 | > 1 | > 1 | > 1 | > 0.257 |
| O=C(CSCC(=O)N/N=C/c1ccc2c(c1)OCO2)N/N=C/c1ccc2c(c1)OCO2 | 56.8 | > 100 | > 100 | > 100 | > 100 | > 100 | > 100 | > 100 | > 100 | > 100 | > 100 | > 100 | > 100 | > 100 | > 100 | > 100 | > 100 | > 100 | > 100 | > 100 |
| c1ccc2c(CSCc3cccc4ccccc34)cccc2c1 | > 100 | > 100 | > 100 | > 100 | > 100 | > 100 | > 100 | > 100 | > 100 | > 100 |  | > 100 | > 100 | > 100 |  | > 100 | > 100 | > 100 | > 100 |  |
| CC(C)(C)[Si](OC1CCOC1=O)(c1ccccc1)c1ccccc1 (stereo unspecified) | 59 | 32.2 | 77.1 | 27.1 |  | 47 | 26.1 | 38.4 | 99.6 | > 100 | > 100 |  |  | > 100 |  | > 100 | 30.1 |  | > 100 | 72.3 |
| CCCCc1ccc(N=C(N)N)cc1 |  | > 100 | > 100 | > 100 | > 100 | 30.4 | 26.8 | 63.5 | > 100 | > 100 | > 100 | 83.4 |  | > 100 | 46.3 | > 100 | > 100 |  |  |  |
| COc1cc(C(=O)NC2CCc3cc(OC)c(OC)c(OC)c3-c3ccc(OC)c(=O)cc32)cc(OC)c1OC (stereo unspecified) | 43.2 | > 100 | 12.8 | 0.261 | > 85.1 | 1.16 | 0.377 | 10.5 | > 100 | > 100 | 20.9 | 22 | > 100 | > 98 | > 100 | > 100 | 33.4 | 24 | 18.3 | 0.0689 |
